Measured values reported in ChEMBL document CHEMBL1201862, “PubChem BioAssay data set” (2004).
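Briefly, cells in 96-well plates were exposed to five compound concentrations for 48 h, and endpoints were estimated by linear interpolation. GI50 = concentration required for 50% inhibition of growth.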 Active and inactive are the calls of the source. No stated cut-off is given here; in the data, active = GI50 up to about 1.1 µM and inactive = higher.

Assays:
Assay in all cases: inhibition of tumour cell growth, NCI panel, 48 h
[1] = system: HCC 2998
[2] = system: SF-539
[3] = system: A549
[4] = system: Hs-578T
[5] = system: BT-549
[6] = system: MOLT-4
[7] = system: MDA-N
[8] = system: A498
[9] = system: OVCAR-3
[10] = system: SK-MEL-5
[11] = system: U-251
[12] = system: NCI/ADR-RES
[13] = system: NCI-H460
[14] = system: EKVX
[15] = system: SK-MEL-28
[16] = system: NCI-H522
[17] = system: UACC-62
[18] = system: COLO 205
[19] = system: M14
[20] = system: K562
[21] = system: NCI-H23
[22] = system: UACC-257
[23] = system: PC-3
[24] = system: OVCAR-5
[25] = system: 786-0
[26] = system: RPMI-8226
[27] = system: SF-295
[28] = system: SR
[29] = system: ACHN
[30] = system: HCT-15
[31] = system: T47D
[32] = system: MDA-MB-231
[33] = system: MCF7
[34] = system: HL-60
[35] = system: HOP-62
[36] = system: SK-MEL-2
[37] = system: SN12C
[38] = system: HT-29
[39] = system: LOX IMVI
[40] = system: OVCAR-8
[41] = system: Malme-3M
[42] = system: SNB-19
[43] = system: KM12
[44] = system: MDA-MB-435
[45] = system: IGROV-1
[46] = system: HCT-116
[47] = system: SW-620
[48] = system: UO-31
[49] = system: TK-10
[50] = system: CAKI-1
[51] = system: HOP-92
[52] = system: DU-145
[53] = system: SNB-75
[54] = system: OVCAR-4
[55] = system: SF-268
[56] = system: CCRF-CEM

COC1=CC(=O)c2c(CCNC(=O)OCc3ccccc3)n[nH]c2C1=O
GI50 [1]: 19 µM (inactive)
GI50 [2]: 17.9 µM (inactive)
GI50 [3]: 19.6 µM (inactive)
GI50 [4]: 24.2 µM (inactive)
GI50 [5]: 17.5 µM (inactive)
GI50 [6]: 16.8 µM (inactive)
GI50 [7]: 2.24 µM (inactive)
GI50 [8]: 17.5 µM (inactive)
GI50 [9]: 18.1 µM (inactive)
GI50 [10]: 3.97 µM (inactive)
GI50 [11]: 13.2 µM (inactive)
GI50 [12]: 75.9 µM (inactive)
GI50 [13]: 15.3 µM (inactive)
GI50 [14]: 17.8 µM (inactive)
GI50 [15]: 12.1 µM (inactive)
GI50 [16]: 7.78 µM (inactive)
GI50 [17]: 5.79 µM (inactive)
GI50 [18]: 18.8 µM (inactive)
GI50 [19]: 12.6 µM (inactive)
GI50 [20]: 16 µM (inactive)
GI50 [21]: 4.01 µM (inactive)
GI50 [22]: 14.9 µM (inactive)
GI50 [23]: 30.4 µM (inactive)
GI50 [24]: 18.1 µM (inactive)
GI50 [25]: 17.5 µM (inactive)
GI50 [26]: 13 µM (inactive)
GI50 [27]: 20.6 µM (inactive)
GI50 [28]: 19.1 µM (inactive)
GI50 [29]: 14.2 µM (inactive)
GI50 [30]: 12.6 µM
GI50 [31]: 2.3 µM (inactive)
GI50 [32]: 17.3 µM (inactive)
GI50 [33]: 8.07 µM (inactive)
GI50 [34]: 16.1 µM (inactive)
GI50 [35]: 22.3 µM (inactive)
GI50 [36]: 11 µM (inactive)
GI50 [37]: 13.8 µM (inactive)
GI50 [38]: 22.8 µM (inactive)
GI50 [39]: 4.54 µM (inactive)
GI50 [40]: 23.1 µM (inactive)
GI50 [41]: 1.76 µM (inactive)
GI50 [42]: 14.7 µM (inactive)
GI50 [43]: 10 µM (inactive)
GI50 [44]: 2.16 µM (inactive)
GI50 [45]: 15.4 µM (inactive)
GI50 [46]: 12.4 µM (inactive)
GI50 [47]: 19.5 µM (inactive)
GI50 [48]: 14.6 µM (inactive)
GI50 [49]: 34 µM (inactive)

C=C(C)C12OC1[C@@]1(C)C(=CC2=O)CCC(O)[C@@H]1C (stereo partly drawn)
GI50 [50]: 0.398 µM (active)
GI50 [1]: 0.718 µM (active)
GI50 [2]: 1.97 µM (inactive)
GI50 [3]: 1.42 µM (inactive)
GI50 [4]: 1.75 µM (inactive)
GI50 [5]: 4.19 µM (inactive)
GI50 [6]: 0.863 µM (active)
GI50 [7]: 2.68 µM (inactive)
GI50 [51]: 16.7 µM (inactive)
GI50 [8]: 5.19 µM (inactive)
GI50 [9]: 3.68 µM (inactive)
GI50 [10]: 3.22 µM (inactive)
GI50 [11]: 1.14 µM (inactive)
GI50 [13]: 0.743 µM (active)
GI50 [14]: 1.94 µM (inactive)
GI50 [15]: 3.89 µM (inactive)
GI50 [16]: 0.782 µM (active)
GI50 [17]: 3.66 µM (inactive)
GI50 [18]: 1.61 µM (inactive)
GI50 [19]: 3.72 µM (inactive)
GI50 [21]: 2.26 µM (inactive)
GI50 [22]: 3.34 µM (inactive)
GI50 [23]: 2.65 µM (inactive)
GI50 [24]: 8.51 µM (inactive)
GI50 [25]: 1.64 µM (inactive)
GI50 [52]: 1.05 µM (active)
GI50 [53]: 3.42 µM (inactive)
GI50 [26]: 2.43 µM (inactive)
GI50 [27]: 2.58 µM (inactive)
GI50 [28]: 1.84 µM (inactive)
GI50 [29]: 0.417 µM (active)
GI50 [30]: 1.92 µM
GI50 [31]: 3.16 µM (inactive)
GI50 [32]: 1.52 µM (inactive)
GI50 [33]: 3.53 µM (inactive)
GI50 [34]: 1.16 µM (inactive)
GI50 [35]: 1.4 µM (inactive)
GI50 [36]: 2.34 µM (inactive)
GI50 [37]: 1.36 µM (inactive)
GI50 [38]: 1.21 µM (inactive)
GI50 [54]: 3.45 µM (inactive)
GI50 [39]: 2.67 µM (inactive)
GI50 [40]: 1.45 µM (inactive)
GI50 [41]: 3.38 µM (inactive)
GI50 [42]: 1.69 µM (inactive)
GI50 [55]: 2.14 µM (inactive)
GI50 [43]: 2.44 µM (inactive)
GI50 [44]: 3.29 µM (inactive)
GI50 [45]: 0.891 µM (active)
GI50 [46]: 1.15 µM (inactive)
GI50 [47]: 2.39 µM (inactive)
GI50 [48]: 1.49 µM (inactive)
GI50 [56]: 0.726 µM (active)
GI50 [49]: 3.73 µM (inactive)
